According to patent US20100267561A1, “HERBICIDAL PYRIDAZINONE DERIVATIVES” (priority 2007, published 2010):

Experiments:
Assay in all cases: Test B pre-/postemergence plant response
Type in all cases: in vivo
corn (Zea mays) = details: for Corn plant response rating: 8 g ai/ha
Procedure, shortened: (§1)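 Seeds were sown and sprayed preemergence, while plants at 2 to 18 cm (1- to 4-leaf stage) got postemergence sprays. Compounds were formulated in a non-phytotoxic solvent mixture with surfactant. After 13 to 15 days in a greenhouse, injury was rated visually against untreated controls, 0 (no effect) to 100 (complete control).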

[1] = tested on: pigweed (Amaranthus retroflexus); details: for Pigweed plant response rating: 8 g ai/ha
Procedure, shortened: as §1

[2] = tested on: catchweed bedstraw (Galium aparine); details: Preemergence
Procedure, shortened: as §1

[3] = tested on: common (oilseed) sunflower (Helianthus annuus); details: Preemergence
Procedure, shortened: as §1

kochia (Kochia scoparia) = details: for Kochia plant response rating: 8 g ai/ha
Procedure, shortened: as §1

[4] = tested on: surinam grass (Brachiaria decumbens); details: for Surinam Grass plant response rating: 8 g ai/ha
Procedure, shortened: as §1

[5] = tested on: johnsongrass (Sorghum halepense); details: for Johnsongrass plant response rating: 8 g ai/ha
Procedure, shortened: as §1

[6] = tested on: blackgrass (Alopecurus myosuroides)
Procedure, shortened: as §1

[7] = tested on: giant foxtail (Setaria faberii); details: for Foxtail, Giant plant response rating: 8 g ai/ha
Procedure, shortened: as §1

[8] = tested on: eastern black (E.B.) nightshade (Solanum ptycanthum); details: Preemergence
Procedure, shortened: as §1

[9] = tested on: woolly cupgrass (Eriochloa villosa); details: for Cupgrass, Woolly plant response rating: 8 g ai/ha
Procedure, shortened: as §1

[10] = tested on: downy bromegrass (Bromus tectorum); details: for Bromegrass, Downy plant response rating: 8 g ai/ha
Procedure, shortened: as §1

[11] = tested on: morningglory (Ipomoea coccinea); details: for Morningglory plant response rating: 8 g ai/ha
Procedure, shortened: as §1

[12] = tested on: green foxtail (Setaria viridis); details: for Foxtail, Green plant response rating: 8 g ai/ha
Procedure, shortened: as §1

[13] = Postemergence, 16 g ai/ha, scale 0 to 100
[14] = Postemergence, 31 g ai/ha, scale 0 to 100
[15] = Postemergence, 62 g ai/ha, scale 0 to 100, 0 no effect, 100 complete control
[16] = Preemergence, 16 g ai/ha, scale 0 to 100 (0 no effect, 100 complete control)
[17] = Preemergence, 31 g ai/ha, 0 to 100 scale, 0 no effect, 100 complete control
[18] = Preemergence, 62 g ai/ha, scale 0 to 100
[19] = Preemergence, 31 g ai/ha, scale 0 to 100 (0 no effect, 100 complete control)
[20] = 16 g ai/ha, scale 0 to 100 (0 no effect, 100 complete control)
[21] = 31 g ai/ha, scale 0 to 100 (0 no effect, 100 complete control)

## Cn1ncc(O)c(-n2nc(-c3ccc(Cl)cc3)cc2C2CC2)c1=O [Compound 45]
Corn (Zea mays); postemergence, 0-100 scale
  Corn plant response rating: 85
Corn (Zea mays); [13]
  Plant response rating, Corn: 90
Corn (Zea mays); [14]
  Plant response rating, Corn: 95
Corn (Zea mays); [15]
  Plant response rating, Corn: 95
Corn (Zea mays); [16]
  Plant response rating, Corn: 55
Corn (Zea mays); [17]
  Plant response rating, Corn: 65
Corn (Zea mays); [18]
  Plant response rating, Corn: 98
Corn (Zea mays); Preemergence, scale 0 to 100
  Corn plant response rating: 0
[1]; postemergence, 0-100 scale
  Pigweed plant response rating: 0
[1]; [13]
  Plant response rating, Pigweed: 0
[1]; [14]
  Plant response rating, Pigweed: 0
[1]; [15]
  Plant response rating, Pigweed: 0
[1]; [16]
  Plant response rating, Pigweed: 0
[1]; [19]
  Plant response rating, Pigweed: 0
[1]; [18]
  Plant response rating, Pigweed: 0
[1]; Preemergence, scale 0 to 100
  Pigweed plant response rating: 0
[2]; [20]
  Plant response rating, Galium: 0
[2]; 31 g ai/ha, 0 to 100 scale, 0 no effect, 100 complete control
  Plant response rating, Galium: 0
[2]; 62 g ai/ha, scale 0 to 100
  Plant response rating, Galium: 0
[2]; 8 g ai/ha, scale 0 to 100
  Galium plant response rating: 0
[3]; [20]
  Plant response rating, Sunflower: 0
[3]; [21]
  Plant response rating, Sunflower: 0
[3]; 62 g ai/ha, scale 0 to 100
  Plant response rating, Sunflower: 0
[3]; 8 g ai/ha, scale 0 to 100
  Sunflower plant response rating: 0
Kochia (Kochia scoparia); postemergence, 0-100 scale
  Kochia plant response rating: 0
Kochia (Kochia scoparia); [13]
  Plant response rating, Kochia: 0
Kochia (Kochia scoparia); [14]
  Plant response rating, Kochia: 0
Kochia (Kochia scoparia); [15]
  Plant response rating, Kochia: 0
Kochia (Kochia scoparia); [16]
  Plant response rating, Kochia: 0
Kochia (Kochia scoparia); [17]
  Plant response rating, Kochia: 0
Kochia (Kochia scoparia); [18]
  Plant response rating, Kochia: 0
Kochia (Kochia scoparia); Preemergence, scale 0 to 100
  Kochia plant response rating: 0
[4]; postemergence, 0-100 scale
  Surinam Grass plant response rating: 75
[4]; [13]
  Plant response rating, Surinam Grass: 85
[4]; [14]
  Plant response rating, Surinam Grass: 98
[4]; [15]
  Plant response rating, Surinam Grass: 100
[4]; [16]
  Plant response rating, Surinam Grass: 20
[4]; [19]
  Plant response rating, Surinam Grass: 40
[4]; Preemergence, 62 g ai/ha, 0 to 100 scale, 0 no effect, 100 complete control
  Plant response rating, Surinam Grass: 90
[4]; Preemergence, scale 0 to 100
  Surinam Grass plant response rating: 0
[5]; postemergence, 0-100 scale
  Johnsongrass plant response rating: 60
[5]; [13]
  Plant response rating, Johnsongrass: 65
[5]; [14]
  Plant response rating, Johnsongrass: 65
[5]; [15]
  Plant response rating, Johnsongrass: 70
[5]; [16]
  Plant response rating, Johnsongrass: 20
[5]; [17]
  Plant response rating, Johnsongrass: 75
[5]; [18]
  Plant response rating, Johnsongrass: 98
[5]; Preemergence, scale 0 to 100
  Johnsongrass plant response rating: 15
[6]; 8 g ai/ha, postemergence, 0-100 scale
  Blackgrass plant response rating: 0
[6]; [13]
  Plant response rating, Blackgrass: 20
[6]; [14]
  Plant response rating, Blackgrass: 85
[6]; [15]
  Plant response rating, Blackgrass: 90
[6]; [16]
  Plant response rating, Blackgrass: 98
[6]; [17]
  Plant response rating, Blackgrass: 100
[6]; [18]
  Plant response rating, Blackgrass: 100
[7]; postemergence, 0-100 scale
  Foxtail, Giant plant response rating: 90
[7]; [13]
  Plant response rating, Foxtail, Giant: 98
[7]; [14]
  Plant response rating, Foxtail, Giant: 100
[7]; [15]
  Plant response rating, Foxtail, Giant: 100
[7]; [16]
  Plant response rating, Foxtail, Giant: 0
[7]; [17]
  Plant response rating, Foxtail, Giant: 35
[7]; [18]
  Plant response rating, Foxtail, Giant: 45
[7]; Preemergence, scale 0 to 100
  Foxtail, Giant plant response rating: 0
[8]; [20]
  Plant response rating, Nightshade, E. B.: 0
[8]; [21]
  Plant response rating, Nightshade, E. B.: 0
[8]; 62 g ai/ha, scale 0 to 100
  Plant response rating, Nightshade, E. B.: 0
[8]; 8 g ai/ha, scale 0 to 100
  Nightshade, E. B. plant response rating: 0
[9]; postemergence, 0-100 scale
  Cupgrass, Woolly plant response rating: 85
[9]; [13]
  Plant response rating, Cupgrass, Woolly: 95
[9]; [14]
  Plant response rating, Cupgrass, Woolly: 100
[9]; [15]
  Plant response rating, Cupgrass, Woolly: 100
[9]; [16]
  Plant response rating, Cupgrass, Woolly: 0
[9]; [18]
  Plant response rating, Cupgrass, Woolly: 0
[9]; Preemergence, scale 0 to 100
  Cupgrass, Woolly plant response rating: 0
[10]; postemergence, 0-100 scale
  Bromegrass, Downy plant response rating: 30
[10]; [13]
  Plant response rating, Bromegrass, Downy: 60
[10]; [14]
  Plant response rating, Bromegrass, Downy: 90
[10]; [15]
  Plant response rating, Bromegrass, Downy: 90
[10]; [16]
  Plant response rating, Bromegrass, Downy: 50
[10]; [17]
  Plant response rating, Bromegrass, Downy: 80
[10]; [18]
  Plant response rating, Bromegrass, Downy: 90
[10]; Preemergence, scale 0 to 100
  Bromegrass, Downy plant response rating: 0
[11]; postemergence, 0-100 scale
  Morningglory plant response rating: 0
[11]; [13]
  Plant response rating, Morningglory: 0
[11]; [14]
  Plant response rating, Morningglory: 0
[11]; [15]
  Plant response rating, Morningglory: 0
[11]; [16]
  Plant response rating, Morningglory: 0
[11]; [19]
  Plant response rating, Morningglory: 0
[11]; [18]
  Plant response rating, Morningglory: 0
[11]; Preemergence, scale 0 to 100
  Morningglory plant response rating: 0
[12]; postemergence, 0-100 scale
  Foxtail, Green plant response rating: 60
[12]; [13]
  Plant response rating, Foxtail, Green: 95
[12]; [14]
  Plant response rating, Foxtail, Green: 100
[12]; [15]
  Plant response rating, Foxtail, Green: 100
[12]; [16]
  Plant response rating, Foxtail, Green: 100
[12]; [17]
  Plant response rating, Foxtail, Green: 100
[12]; [18]
  Plant response rating, Foxtail, Green: 100
[12]; Preemergence, scale 0 to 100
  Foxtail, Green plant response rating: 100
